Entries after “also recorded” stand apart in the source; their conditions may differ. Where two headings read alike, the source gives them in different places.
How the values were obtained:
tumor cells = settings: in culture; read-out: IC50 tumor cell killing; cited from earlier work
CYP2C9 = CYP2C9 (Homo sapiens, UniProt P11712); assay: CYP inhibition in liver microsomes, CYP2C9; assay type: in vitro ADME; settings: human liver microsomes 0.1 mg/mL
Procedure: (§2) After addition of prototypical CYP substrates in 250 μL, samples were incubated for 10 min (CYP1A2, CYP2B6, CYP2C9, and CYP3A4) or 20 min (CYP2C8) at 37° C. in 5% CO2. […] Samples were analyzed for metabolite formation by LC-MS/MS. The results were expressed using the peak area ratio of analyte to internal standard, based on the calibration curves.
(§3) where Range=fitted uninhibited value, s=slope factor, x=inhibitor concentration, y=% control activity.

KCNQ1/minK = KCNQ1/minK (Homo sapiens, UniProt P51787); assay: Ion channel screening, KCNQ1/minK; assay type: cell-based; settings: n=16, read-out: inhibition of KCNQ1/mink currents
Text: (§4) The parameters measured were the maximum inward current evoked on stepping to −20 mV from the 1st and 26th pulse. Human Kv4.3/KChIP2 currents were evoked from a holding potential of −80 mV by a series of four 500 msec pulses to 0 mV using a 1000 msec interval between pulses. The parameter measured was the amplitude of the outward current 50 msec after the onset of the 4th voltage step to 0 mV. Human Cav1.2 currents were evoked by 2 pulses to −10 mV from a holding potential of −100 mV. The parameters measured were the maximum inward currents evoked on stepping to −10 mV from the holding potential of −100 mV for the 1st and 2nd pulse. Human Kv1.5 currents were evoked by a single pulse from a holding potential of −80 mV to a potential of 0 mV for 4 sec before returning to −80 mV. The parameters measured were the maximum amplitude of outward currents evoked at the beginning of the voltage pulse and at the end of the voltage step from −80 mV to 0 mV. Human KCNQ1/minK currents were evoked by a single pulse delivered from a holding potential of −80 mV to +60 mV for 4 sec before returning to −80 mV. The parameter measured was the maximum outward current evoked on stepping to +60 mV from the holding potential of −80 mV. hERG currents were evoked by a three-pulse protocol where voltage was first stepped to +40 mV for two sec from a holding potential of −80 mV to inactivate hERG channels. […]

Cav1.2 = Cav1.2 (Homo sapiens, UniProt Q13936); assay: Ion channel screening, Cav1.2; assay type: cell-based; settings: n=34, pulse 2, read-out: inhibition of Cav1.2 currents
Text: as §4

Human Kir2.1 = Human Kir2.1 (Homo sapiens, UniProt P63252); assay: Ion channel screening, Kir2.1; assay type: cell-based; settings: n=15, pulse 10, read-out: inhibition of Kir2.1 currents
Text: The parameter measured was the maximum outward current evoked on stepping to +60 mV from the holding potential of −80 mV. hERG currents were evoked by a three-pulse protocol where voltage was first stepped to +40 mV for two sec from a holding potential of −80 mV to inactivate hERG channels. The voltage is then stepped back to −50 mV for two sec to evoke a tail current prior to returning to the holding potential for 1 sec. The parameter measured was the amplitude of the 3rd pulse tail current upon stepping back to −50 mV after the step to +40 mV. Human HCN4 currents were evoked by a single pulse from a holding potential of −30 mV to a potential of −110 mV for 4 sec prior to returning to −30 mV. The parameter measured was the maximum inward current evoked upon stepping to −110 mV from the holding potential of −30 mV. Human Kir2.1 currents were evoked from a holding potential of −20 mV by a series of 10 500 msec pulses to −120 mV using a 200 msec interval between pulses. The parameters measured were the amplitudes of the instantaneous inward currents evoked on stepping to −120 mV for the 1st pulse and the maximum inward current at the end of the 10th hyperpolarizing pulse. For all experiments, data were filtered for seal quality, seal drop, and current amplitude.

NCI 60 cell lines = settings: NCI 60 cell line screen; read-out: IC50 anticancer activity; cited from earlier work
Human Kv1.5 = Human Kv1.5 (Homo sapiens, UniProt P22460); assay: Ion channel screening, Kv1.5; assay type: cell-based; settings: n=15, read-out: inhibition of Kv1.5 currents
Text: as §4

beagle dogs = assay: Electrocardiography studies in beagle dogs; assay type: in vivo
Procedure: At each time point, eight-lead ECGs were continuously recorded for at least 30 sec. At least five consecutive ECG waveforms and the associated RR intervals deemed most representative were selected for quantitative analysis at each time point. The ECG interval measurements (PR, QRS, QT, QTc, RR, and heart rate) were made on a single lead. The measured waveforms at each time point were averaged and reported. The QTc interval was calculated using the Fridericia (QT/[RR]^1/3) method. The RR interval was used to derive the heart rate and in QT interval correction. Qualitative assessments included normal sinus rhythm variations, abnormal sinus rhythms, conductance or repolarization abnormalities, bradycardia, and tachycardia. Group comparisons of ECG data (PR, QRS, QT, QTc, and heart rate) were analyzed using ANOVA.

[1] = Toxicity and toxicokinetics in rats, IV twice weekly for 29 d; assay type: in vivo, Sprague-Dawley rats; settings: Sprague-Dawley, rat; for Cmax / AUC(0-t): plasma, iv, rats; for AUC(0-t): read-out: AUC0-24
Procedure: (§1) Ninety-six male and female Sprague-Dawley rats (6-7 weeks old) were received from Charles River Laboratories, (Raleigh, N.C.) and catheterized via a femoral vein prior to arrival. Animals were acclimated in individual stainless-steel cages with access to water and Certified Rodent Diet #2014C (Envigo RMS) ad libitum for 6 d prior to study initiation. Environmental controls were set to maintain a temperature range of 20 to 26° C., a relative humidity range of 30 to 70%, eight or greater air changes/h, and a 12-h light/dark cycle. Animals were infused with sterile isotonic (0.9%) saline for a minimum of 4 d (0.20 mL/h for males or 0.15 mL/h for females) during the predose phase. At initiation of dosing, animals were 8 to 9 weeks old, and body weights ranged from 283 to 341 g for males and 188 to 238 g for females. Gamitrinib formulated as indicated above was administered by IV infusion on d […], 8, 11, 15, 18, 22, 25, and 29 of the dosing phase at 1, 10, 25 mg/kg/dose and dose volume of 5 mL/kg. The vehicle control administered with the same schedule contained 2.5% DMSO, 0.125% polysorbate 80, 0.031% lecithin, 1.25% sucrose and 4.375% dextrose. Animals were checked twice daily throughout the duration of the study for mortality, abnormalities, and signs of pain or distress. Detailed observations were conducted for each animal up to two times during the predose phase and for each toxicity animal prior to dosing on d 1, 8, 15, 22, and 29 of the dosing phase and on d 1, 7, and 14 of the recovery phase. Blood samples were collected on d. 1, 4 and 29 of the dosing phase 5 min, 1 h and 24 h post-dose, maintained on chilled cryoracks and centrifuged within 1 h of collection. Tissue samples harvested from each animal were embedded in paraffin, sectioned, and slides were prepared and stained with hematoxylin and eosin.

Sprague-Dawley rats = assay: as above; assay type: in vivo; settings: for reduction in mean body weights: male rats
Procedure: as §1

[2] = Phase I, cytochrome P450-mediated human liver microsome metabolism
Human Kv4.3/KChIP2 = Human Kv4.3/KChIP2 (Homo sapiens, UniProt Q9UK17); assay: Ion channel screening, Kv4.3/KChIP2; assay type: cell-based; settings: n=13, read-out: inhibition of Kv4.3/KChIP2 currents
Text: as §4

CYP3A4 = CYP3A4 (Homo sapiens, UniProt P08684); assay: CYP inhibition in liver microsomes, CYP3A4; assay type: in vitro ADME; settings: human liver microsomes 0.1 mg/mL
Procedure: as §2, §3

[3] = test system: breast adenocarcinoma cell lines; settings: breast adenocarcinoma lines of NCI 60 screen; read-out: IC50 anticancer activity; cited from earlier work
CYP2B6 = CYP2B6 (Homo sapiens, UniProt P20813); assay: CYP inhibition in liver microsomes, CYP2B6; assay type: in vitro ADME; settings: human liver microsomes 0.1 mg/mL
Procedure: as §2, §3

[4] = Stability in human plasma; assay type: in vitro ADME
melanoma cell lines = settings: melanoma lines of NCI 60 screen; read-out: IC50 anticancer activity; cited from earlier work
CYP2C8 = CYP2C8 (Homo sapiens, UniProt P10632); assay: CYP inhibition in liver microsomes, CYP2C8; assay type: in vitro ADME; settings: human liver microsomes 0.1 mg/mL
Procedure: as §2, §3

[5] = 1 mg/kg/dose (NOAEL), d 29 of dosing

Sequence of Human Kir2.1 (P63252 whole entry): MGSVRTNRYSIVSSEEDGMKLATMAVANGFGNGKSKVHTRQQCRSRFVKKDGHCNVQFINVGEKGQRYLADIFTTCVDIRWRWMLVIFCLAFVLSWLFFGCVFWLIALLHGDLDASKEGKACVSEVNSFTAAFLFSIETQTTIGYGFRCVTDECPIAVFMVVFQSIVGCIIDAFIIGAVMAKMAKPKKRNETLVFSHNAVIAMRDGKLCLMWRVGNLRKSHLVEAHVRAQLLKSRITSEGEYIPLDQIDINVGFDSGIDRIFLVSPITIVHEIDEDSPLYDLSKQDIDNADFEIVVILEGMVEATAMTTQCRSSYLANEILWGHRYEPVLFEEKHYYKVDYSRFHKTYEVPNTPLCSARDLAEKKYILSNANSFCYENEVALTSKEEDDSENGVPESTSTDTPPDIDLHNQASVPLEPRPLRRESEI
Sequence of Human Kv1.5 (P22460 whole entry): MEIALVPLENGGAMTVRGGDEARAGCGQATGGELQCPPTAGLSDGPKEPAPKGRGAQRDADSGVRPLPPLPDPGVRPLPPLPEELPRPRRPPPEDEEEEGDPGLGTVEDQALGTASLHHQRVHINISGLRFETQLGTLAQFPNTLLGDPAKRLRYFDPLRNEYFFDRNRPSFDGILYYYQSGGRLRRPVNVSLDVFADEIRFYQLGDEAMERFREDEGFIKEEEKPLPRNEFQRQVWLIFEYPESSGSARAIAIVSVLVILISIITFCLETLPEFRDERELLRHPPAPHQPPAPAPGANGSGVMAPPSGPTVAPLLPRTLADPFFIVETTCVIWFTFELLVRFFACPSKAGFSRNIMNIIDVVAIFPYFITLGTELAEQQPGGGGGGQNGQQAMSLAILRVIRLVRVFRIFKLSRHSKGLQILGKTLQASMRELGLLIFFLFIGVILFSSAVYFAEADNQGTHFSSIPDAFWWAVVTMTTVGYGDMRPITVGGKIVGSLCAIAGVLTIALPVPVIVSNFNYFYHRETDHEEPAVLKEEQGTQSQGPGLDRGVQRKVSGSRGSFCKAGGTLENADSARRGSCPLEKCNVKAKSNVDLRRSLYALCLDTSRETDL
Sequence of CYP2C9 (P11712 whole entry): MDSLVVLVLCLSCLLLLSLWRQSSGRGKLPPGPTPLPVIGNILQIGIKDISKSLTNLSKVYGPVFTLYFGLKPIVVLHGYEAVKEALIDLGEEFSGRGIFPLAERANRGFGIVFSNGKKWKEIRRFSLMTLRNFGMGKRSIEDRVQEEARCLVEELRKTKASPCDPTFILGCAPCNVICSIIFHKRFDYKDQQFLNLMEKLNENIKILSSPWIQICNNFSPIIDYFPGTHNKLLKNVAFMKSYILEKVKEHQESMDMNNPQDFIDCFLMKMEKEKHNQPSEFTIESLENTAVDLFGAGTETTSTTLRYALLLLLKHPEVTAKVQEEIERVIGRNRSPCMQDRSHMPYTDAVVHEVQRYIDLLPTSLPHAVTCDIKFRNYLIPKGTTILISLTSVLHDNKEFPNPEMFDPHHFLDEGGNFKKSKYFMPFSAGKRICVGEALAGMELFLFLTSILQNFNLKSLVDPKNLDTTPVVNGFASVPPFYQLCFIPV
Sequence of CYP2B6 (P20813 whole entry): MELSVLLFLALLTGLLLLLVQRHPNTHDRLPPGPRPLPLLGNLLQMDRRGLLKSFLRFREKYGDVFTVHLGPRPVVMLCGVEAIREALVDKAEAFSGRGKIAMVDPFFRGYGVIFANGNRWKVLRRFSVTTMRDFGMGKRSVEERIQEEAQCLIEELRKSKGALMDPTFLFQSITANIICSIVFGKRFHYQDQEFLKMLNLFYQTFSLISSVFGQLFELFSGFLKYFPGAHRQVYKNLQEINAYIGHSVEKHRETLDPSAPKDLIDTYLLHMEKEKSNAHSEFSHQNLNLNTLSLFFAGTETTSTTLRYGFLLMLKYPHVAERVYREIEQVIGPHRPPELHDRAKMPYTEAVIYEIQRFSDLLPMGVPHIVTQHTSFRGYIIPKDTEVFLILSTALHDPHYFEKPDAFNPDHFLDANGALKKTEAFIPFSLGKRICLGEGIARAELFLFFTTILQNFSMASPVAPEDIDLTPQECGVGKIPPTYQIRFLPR
Sequence of CYP2C8 (P10632 whole entry): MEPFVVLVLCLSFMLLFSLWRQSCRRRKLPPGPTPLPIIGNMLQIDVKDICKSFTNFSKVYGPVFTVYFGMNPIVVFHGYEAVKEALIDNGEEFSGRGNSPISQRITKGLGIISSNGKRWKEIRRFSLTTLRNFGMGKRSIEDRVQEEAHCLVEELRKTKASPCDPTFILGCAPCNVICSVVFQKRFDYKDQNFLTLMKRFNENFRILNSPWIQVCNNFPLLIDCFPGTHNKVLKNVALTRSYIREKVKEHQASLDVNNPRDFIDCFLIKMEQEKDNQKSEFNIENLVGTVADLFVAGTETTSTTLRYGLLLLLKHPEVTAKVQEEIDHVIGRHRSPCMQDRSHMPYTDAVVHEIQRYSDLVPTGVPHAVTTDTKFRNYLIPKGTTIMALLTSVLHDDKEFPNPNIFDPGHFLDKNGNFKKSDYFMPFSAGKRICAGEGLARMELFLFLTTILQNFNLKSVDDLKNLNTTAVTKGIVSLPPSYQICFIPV
Sequence of Human Kv4.3/KChIP2 (Q9UK17 whole entry): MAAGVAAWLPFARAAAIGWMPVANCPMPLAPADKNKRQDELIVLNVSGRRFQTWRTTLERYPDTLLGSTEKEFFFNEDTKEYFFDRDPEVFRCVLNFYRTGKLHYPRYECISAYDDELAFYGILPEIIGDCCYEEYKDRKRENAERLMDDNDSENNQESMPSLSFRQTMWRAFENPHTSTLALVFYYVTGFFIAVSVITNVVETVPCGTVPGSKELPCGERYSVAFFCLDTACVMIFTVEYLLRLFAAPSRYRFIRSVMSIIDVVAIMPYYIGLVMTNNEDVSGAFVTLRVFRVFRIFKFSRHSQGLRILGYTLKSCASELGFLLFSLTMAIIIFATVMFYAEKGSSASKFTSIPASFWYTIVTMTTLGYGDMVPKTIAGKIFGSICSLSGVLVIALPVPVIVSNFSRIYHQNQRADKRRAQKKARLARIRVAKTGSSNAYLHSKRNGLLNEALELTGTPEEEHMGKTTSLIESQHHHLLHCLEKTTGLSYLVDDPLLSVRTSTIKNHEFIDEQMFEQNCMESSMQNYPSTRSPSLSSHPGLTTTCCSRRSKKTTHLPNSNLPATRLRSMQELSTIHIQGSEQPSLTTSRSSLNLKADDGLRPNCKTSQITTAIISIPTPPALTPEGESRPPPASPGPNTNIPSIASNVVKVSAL
Sequence of Human Kv4.3/KChIP2 (Q9NS61 whole entry partner): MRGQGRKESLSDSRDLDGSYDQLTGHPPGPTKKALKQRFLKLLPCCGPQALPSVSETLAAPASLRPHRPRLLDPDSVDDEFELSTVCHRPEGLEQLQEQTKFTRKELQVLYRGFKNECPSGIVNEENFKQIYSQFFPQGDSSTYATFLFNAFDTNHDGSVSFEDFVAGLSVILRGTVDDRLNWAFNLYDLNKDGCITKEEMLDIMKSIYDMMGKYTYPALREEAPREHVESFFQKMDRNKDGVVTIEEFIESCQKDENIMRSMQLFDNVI
Sequence of CYP3A4 (P08684 whole entry): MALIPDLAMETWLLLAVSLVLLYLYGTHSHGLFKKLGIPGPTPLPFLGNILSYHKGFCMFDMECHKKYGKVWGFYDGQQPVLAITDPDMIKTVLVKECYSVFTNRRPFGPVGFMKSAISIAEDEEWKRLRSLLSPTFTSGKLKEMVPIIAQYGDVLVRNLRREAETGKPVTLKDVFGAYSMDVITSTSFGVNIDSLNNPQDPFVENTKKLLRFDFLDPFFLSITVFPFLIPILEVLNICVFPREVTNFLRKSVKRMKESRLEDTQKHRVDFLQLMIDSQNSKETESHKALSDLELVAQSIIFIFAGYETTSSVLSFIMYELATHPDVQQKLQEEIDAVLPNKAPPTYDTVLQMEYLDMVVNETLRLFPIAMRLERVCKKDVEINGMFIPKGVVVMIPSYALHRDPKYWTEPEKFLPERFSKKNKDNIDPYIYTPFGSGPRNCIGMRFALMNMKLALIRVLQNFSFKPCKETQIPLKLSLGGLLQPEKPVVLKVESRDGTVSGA

SMILES: CO[C@H]1/C=C\C=C(/C)C(=O)NC2=CC(=O)C(NCCCCCC[P+](c3ccccc3)(c3ccccc3)c3ccccc3)=C(C[C@@H](C)C[C@H](OC)[C@H](O)[C@@H](C)/C=C(\C)[C@@H]1OC(N)=O)C2=O [Gamitrinib, 17-Demethoxy-17-((6-(triphenylphosphonio)hexyl)amino)geldanamycin]
- IC50 (tumor cells): 1000 to 4000 nM
- IC50 (CYP2C9): 1100 nM
- inhibition at 10 µM (KCNQ1/minK): 22.5 ± 1.1%
- inhibition at 10 µM (Cav1.2): 12.2 ± 1.5%
- inhibition at 10 µM (Human Kir2.1): -7.3 ± 3.4%
- IC50 (NCI 60 cell lines): 160 to 29000 nM
- inhibition at 10 µM (Human Kv1.5): 6.6 ± 1.3%
- ECG changes in PR interval, QRS duration, QT interval, or heart rate (beagle dogs; d 32 of dosing at 1.25, 3.33 or 6.25 mg/kg/dose, d 11 of recovery at 6.25): No Gamitrinib-related ECG changes
- rhythm abnormalities or qualitative ECG changes (beagle dogs; dogs): No other rhythm abnormalities or qualitative ECG changes were observed
- prolongation of QTc interval (beagle dogs; female dogs 6.25 mg/kg/dose, both sexes 1.25 or 3.33 mg/kg/dose): No Gamitrinib-related prolongation of QTc interval
- prolongation of QTc interval (beagle dogs; one out of 5 male dogs at 6.25 mg/kg/dose, d 32 of dosing): 17 ms
- prolongation of QTc interval (beagle dogs; one out of 5 male dogs at 6.25 mg/kg/dose, d 32 of dosing, reversed in recovery): 7%
- Cmax [1, 5]: 87.1 ng/mL
- AUC(0-t) [1, 5]: 174 ng·h/mL
- Cmax ([1]; 10 mg/kg/dose (STD 10), d 29): 311 ng/mL
- AUC(0-t) ([1]; 10 mg/kg/dose (STD 10), d 29): 1300 ng·h/mL
- Vd ([1]; both sexes, in vivo, rats, 1, 10 or 25 mg/kg/dose IV twice weekly, d 4 and d 29, read-out: Vss): 12.2 to 90 L/kg
- reduction in mean body weights (Sprague-Dawley rats; 10 mg/kg/dose IV twice weekly): −5.5%
- reduction in mean body weights (Sprague-Dawley rats; 25 mg/kg/dose IV twice weekly): −5.7%
- urinalysis or ophthalmic changes (Sprague-Dawley rats; rats): No effects
- Gamitrinib-related clinical observations (Sprague-Dawley rats; rats administered 10 mg/kg/dose): inguinal swelling, piloerection, hypoactivity, and sensitivity to touch at the infusion site
- microscopic findings at the infusion site (Sprague-Dawley rats; rats administered 10 mg/kg/dose (both sexes)): mixed cell inflammation at the catheter/infusion site
- kidney histology (Sprague-Dawley rats; rats, 25 mg/kg/dose IV, 25 mg/kg): slight kidney tubule degeneration/regeneration; also recorded: marked kidney tubule degeneration/regeneration; also recorded: tubular degeneration/regeneration
- serum urea nitrogen (UN) and creatinine concentrations (Sprague-Dawley rats; rats, 25 mg/kg/dose, 25 mg/kg): Minimally to mildly higher; also recorded: mild elevation of urea nitrogen
- serum urea nitrogen (Sprague-Dawley rats; rats, >10 mg/kg/dose): mild elevation
- no observed adverse effect level (NOAEL) (Sprague-Dawley rats; rats, IV twice weekly 29 d): 1 mg/kg/dose
- severely toxic dose in 10% of the animals (STD 10) (Sprague-Dawley rats; rats, IV twice weekly 29 d): 10 mg/kg/dose
- Alterations in clinical chemistry parameters (Sprague-Dawley rats; rats, highest Gamitrinib dose level tested): mildly to moderately higher neutrophil and platelet (Plts) counts, minimally prolonged partial thromboplastin time (PT), lower albumin, higher globulin, and alkaline phosphatase concentrations
- drug accumulation (Sprague-Dawley rats; rats, Cmax and AUC0-24 similar on d 4 and d 29): no drug accumulation after multiple doses
- Gamitrinib-related mortality (Sprague-Dawley rats; toxicity rats, 10 mg/kg/dose): one male
- Gamitrinib-related mortality (Sprague-Dawley rats; toxicity rats, 25 mg/kg/dose): two males and one female
- Gamitrinib-related mortality (Sprague-Dawley rats; toxicokinetic rats, 10 mg/kg/dose): two toxicokinetic females
- Gamitrinib-related mortality (Sprague-Dawley rats; toxicokinetic rats, 25 mg/kg/dose): one toxicokinetic female
- elimination rate constant (k) ([2]; 0.5 μM, human liver microsomes): 0.041
- intrinsic clearance (CLint) ([2]; 0.5 μM, human liver microsomes): 3.30 mL/min/g
- half-life at 0.5 μM ([2]; human, liver microsomes): 16.7 min
- inhibition at 10 µM (Human Kv4.3/KChIP2): 6.8 ± 2.2%
- IC50 (CYP3A4): 120 to 200 nM
- IC50 [3]: 160 to 3300 nM
- IC50 (CYP2B6): 16000 nM
- recovery [4]: 82.8 ± 3%
- stability in human plasma [4]: 91.4%
- IC50 (melanoma cell lines): 360 to 2700 nM
- IC50 (CYP2C8): 8000 nM

From patent publication US20230277569A1, “Compositions and Methods for Treating, Ameliorating and/or Preventing Cancer and Kits for the Same” (priority 2022, published 2023)
